Reference: patent US9914754B2, “Conjugates of neurotensin or neurotensin analogs and uses thereof” (Angiochem Inc., priority 2008, dated 2018)
Like-named read-outs stand apart in the source and are kept apart here. Peptide text beside a SMILES is read from it.

Tests used:
NTSR1 = NTSR1 (Homo sapiens, UniProt P30989); type: binding
[1] = in situ brain perfusion assay; cited from earlier work
[2] = competition with [3H]-NT on HT29 cells expressing NTSR1

Chain of NTSR1 (P30989 whole entry, the tested form may be a part): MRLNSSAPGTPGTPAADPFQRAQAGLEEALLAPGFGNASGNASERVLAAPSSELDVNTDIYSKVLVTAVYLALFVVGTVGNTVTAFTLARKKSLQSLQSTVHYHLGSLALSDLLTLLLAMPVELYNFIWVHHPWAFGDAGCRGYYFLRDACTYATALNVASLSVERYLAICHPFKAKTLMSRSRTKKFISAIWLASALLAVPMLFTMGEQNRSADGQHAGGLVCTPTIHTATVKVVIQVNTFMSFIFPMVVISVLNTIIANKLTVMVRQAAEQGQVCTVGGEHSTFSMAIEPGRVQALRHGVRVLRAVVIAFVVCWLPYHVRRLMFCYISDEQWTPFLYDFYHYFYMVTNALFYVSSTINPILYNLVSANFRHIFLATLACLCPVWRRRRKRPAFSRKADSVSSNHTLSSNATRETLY

| Compound | IC50 (NTSR1; HT29 cells, [3H]-NT, values in the text (FIGS. 21, 22)) [nM] | IC50 (NTSR1; [2]) [nM] | transport across the BBB relative to Angiopep-1 (250 nM) [1] [%] |
| --- | --- | --- | --- |
| CC[C@H](C)[C@H](NC(=O)[C@@H](Cc1ccc(O)cc1)NC(=O)[C@@H]1CCCN1C(=O)[C@H](CCCNC(=N)N)NC(=O)[C@H](CCCNC(=N)N)NC(=O)C(CCCCNC(=O)CCCCCN1C(=O)CC(SC[C@H](NC(=O)[C@H](Cc2ccc(O)cc2)NC(=O)[C@H](CCC(=O)O)NC(=O)[C@H](CCC(=O)O)NC(=O)[C@@H](NC(=O)[C@H](CCCCN)NC(=O)[C@H](Cc2ccccc2)NC(=O)[C@H](CC(N)=O)NC(=O)[C@H](CC(N)=O)NC(=O)[C@H](CCCNC(=N)N)NC(=O)[C@H](CCCCN)NC(=O)CNC(=O)[C@H](CCCNC(=N)N)NC(=O)[C@H](CO)NC(=O)CNC(=O)CNC(=O)[C@H](Cc2ccc(O)cc2)NC(=O)[C@H](Cc2ccccc2)NC(=O)[C@H](Cc2ccccc2)NC(=O)[C@@H](N)[C@@H](C)O)[C@@H](C)O)C(N)=O)C1=O)NC(C)=O)C(=O)N[C@@H](CC(C)C)C(=O)O (stereo partly drawn) [Ac-Lys-[D-Tyr^11]NT(8-13)-An2] | 5390 | > 100 | – |
| CC[C@H](C)[C@H](NC(=O)[C@H](Cc1ccc(O)cc1)NC(=O)[C@@H]1CCCN1C(=O)[C@H](CCCNC(=N)N)NC(=O)[C@H](CCCNC(=N)N)NC(=O)[C@H](CCCCN)NC(C)=O)C(=O)N[C@@H](CC(C)C)C(=O)O [AcLys-NT(8-13)] (Ac-KRRPYIL-OH) | – | 1 | – |
| T F F Y G G S R G K R N N F R T E E Y (TFFYGGSRGKRNNFRTEEY) [Angiopep-6] | – | – | 38.5 |
